# Measured values published in US20110160260A1, “Method of Treating a Neurodegenerative Disorder” (Chung Shan Medical University, priority 2009, published 2011).
# Tests used:
# Assay type in all cases: in vivo, Wistar rats
# [1] = system: MPTP-lesioned rats (Parkinson's disease animal model); experiment: Episodic-like memory test in MPTP-lesioned rats
# Description: (§1) Thirty-nine male Wistar rats (306.2±0.9 g; BioLASCO Taiwan Co., Ltd.) were used as experimental animals in the present invention. All experimental procedures were performed according to the NIH Guide for the Care and Use of Laboratory Animals and were approved by the Animal Care Committee of the Chung Shan Medical University (IACUC approval No.: 434). All animals underwent stereotaxic surgery and MPTP were injected into the substantia nigra pars compacta (SNc) in the animals to establish Parkinson's disease animal model. One day after the surgery, the rats received daily dose of intraperitoneal (i.p.) injections of D-cycloserine (DCS) (0, 5, or 10 mg/kg/day) or saline at 18:00 for 13 days. The animals were divided respectively into groups of experimental group 0 (E0), receiving MPTP+saline, experimental group 1 (E1), receiving MPTP+DCS 5 mg/kg/day, experimental group 2 (E2), receiving MPTP+DCS 10 mg/kg/day and Sham-operated group/control group (CR), receiving saline (1 ml/kg/day, i.p.) (also called control group or Sham+saline group). The descriptions of “control group, experimental group 0, experimental group 1 and experimental group 2” were used below.
# (§2) For the brain surgery, all animals were intraperitoneal injected with Zoletil (2 mg/kg; Virbac, Carros, Franc) and received stereotaxic surgery after anesthetization. MPTP-HCl (1 μmol in 2 μl of saline; Sigma, Mo., USA) (Da Cunha et al., Behav Brain Res, 2001, 124:9-18; Gevaerd et al., Brain Res Bull, 2001, 55: 101-6) or saline (2 μl) were microinjected into the substantia nigra pars compacta (SNc).
# The episodic-like memory test was performed in an open field (60×60×40 cm, without roof allowing rats to aware external distal cues), 13 days after the MPTP lesion. The floor of the open field was divided into 9 areas of equal size. A video camera was mounted 160 cm above the center of the open field to record and analysis the behavior of rats. Two different sets of objects made of metal or plastic were used in the experiment. The objects weighed about 950 g and therefore, they were unmovable by the rats. The two objects differed in the diameter of base, height, color, shape, and surface texture (the metal object: column in shape, 6.5 cm in diameter, 12 cm high, silver-colored, smooth surface; the plastic object: cuboid in shape, a 7.5×5 cm cross section, 15 cm high, pellucid-colored, rough surface). One day before the test, rats were placed individually into the open field for twice and allowed to explore it (once for 5 min), with a 4 h interval, for adapting to the testing environment.
# The procedure of episodic-like memory test was consistent with previous reported research (Li and Chao., Neurobiol Learn Mem 2008; 89:192-8). The method comprised two sample trials and one testing trial. In the first sample trial, the rats were placed in the open field with four identical objects (FIG. 1A, upper left), and allowed to explore them for 5 min. After an interval of 60 min, the rats were put into the same open field again and received the second sample trial for 5 min, wherein the objects were replaced with another objects and the spatial configuration was changed (FIG. 1A, lower left). After an additional interval of 60 min, the rats received a testing trial, wherein two identical objects from sample trial 1 (the “old” objects; “O”) and two identical objects from sample trial 2 (the “recent” objects; “R”) were presented. In the testing trial, animals encountered a mixed set consisting of two “O” and two “R” objects. One object from each of the two sets of objects was placed in the “same” location as in the sample trials (Os and Rs). The other two objects were “displaced” to new locations (Od and Rd) (FIG. 1A, lower right). Time spent on exploring the objects was recorded.
# [2] = system: DAergic neurons in striatum and SNc of MPTP-lesioned rats; experiment: Tyrosine hydroxylase (TH) immunostaining of striatum and SNc, image analysis
# Description: as §1, §2
# One day after the test of episodic-like memory, rats were sacrificed under deep anesthesia by CO2. For histological assessment, 5-6 randomly selected rats per group were perfused cardiacly with 4% paraformaldehyde in phosphate-buffered saline (PBS), and the brains were removed rapidly and post-fixed in 20% sucrose solution with 4% paraformaldehyde at 4° C. […]
# A microscope (ZEISS AXioskop2, Germany) disposed with a CCD (Optronics, USA) and the Image Pro Plus Software 6.0 (Media Cybernetics, CA, USA) was used for observation. […] The gray level of a given area of interest was measured, and the background staining measured in non-immunoreactive corpus callosum was subtracted. […] The somas of TH immunoreactive neurons located in this area were counted. The density of activated microglia was measured, according to the methods described in the literature (Sugama S, et al., Brain Res, 2003, 964: 288-94). […] Then, the numbers of activated microglial cells in the SNc, striatum, and hippocampus were counted in the areas of interest (measuring 18,769, 36,477, and 18,769 μm^2, respectively). […]
# [3] = system: activated microglia in SNc, striatum and hippocampus of MPTP-lesioned rats; experiment: OX-6 (MHC class II) immunostaining, density of activated microglia
# Description: as §1, §2
# One day after the test of episodic-like memory, rats were sacrificed under deep anesthesia by CO2. For histological assessment, 5-6 randomly selected rats per group were perfused cardiacly with 4% paraformaldehyde in phosphate-buffered saline (PBS), and the brains were removed rapidly and post-fixed in 20% sucrose solution with 4% paraformaldehyde at 4° C. The frozen coronal brain sections were cut into 30 μm and further immunostained with mouse monoclonal antibodies against rat tyrosine hydroxylase (TH) (1:2000; Zymade, USA) or rat MHC class II (OX-6; 1:200; BD Biosciences Pharmingen, CA, USA) at 4° C. overnight, identical to the method used in our previous report (Wang, Wu, Liou, et. al, Behav Neurosci, 2009). In sections containing hippocampus, neurons in the hippocampus was identified by Nissl staining method.
# A microscope (ZEISS AXioskop2, Germany) disposed with a CCD (Optronics, USA) and the Image Pro Plus Software 6.0 (Media Cybernetics, CA, USA) was used for observation. The three square areas (measuring 36,477, 18,769, and 2,354 μm^2) were applied respectively to determine the relative optical density of TH immunoreactivity in the striatum and the neuronal density in the SNc and hippocampal CA1 area. The images of TH staining were converted to the gray scale for measuring the density of DAergic projections. The gray level of a given area of interest was measured, and the background staining measured in non-immunoreactive corpus callosum was subtracted. […] The somas of TH immunoreactive neurons located in this area were counted. The density of activated microglia was measured, according to the methods described in the literature (Sugama S, et al., Brain Res, 2003, 964: 288-94). […] Then, the numbers of activated microglial cells in the SNc, striatum, and hippocampus were counted in the areas of interest (measuring 18,769, 36,477, and 18,769 μm^2, respectively). […]
# [4] = system: pyramidal neurons in hippocampal CA1 area of MPTP-lesioned rats; experiment: Nissl staining of hippocampal CA1 pyramidal cell layer, neuronal density; conditions: DCS 10 mg/kg/day
# Description: Thirty-nine male Wistar rats (306.2±0.9 g; BioLASCO Taiwan Co., Ltd.) were used as experimental animals in the present invention. All experimental procedures were performed according to the NIH Guide for the Care and Use of Laboratory Animals and were approved by the Animal Care Committee of the Chung Shan Medical University (IACUC approval No.: 434). All animals underwent stereotaxic surgery and MPTP were injected into the substantia nigra pars compacta (SNc) in the animals to establish Parkinson's disease animal model. One day after the surgery, the rats received daily dose of intraperitoneal (i.p.) injections of D-cycloserine (DCS) (0, 5, or 10 mg/kg/day) or saline at 18:00 for 13 days. […]
# A microscope (ZEISS AXioskop2, Germany) disposed with a CCD (Optronics, USA) and the Image Pro Plus Software 6.0 (Media Cybernetics, CA, USA) was used for observation. […] The gray level of a given area of interest was measured, and the background staining measured in non-immunoreactive corpus callosum was subtracted. […] The somas of TH immunoreactive neurons located in this area were counted. The density of activated microglia was measured, according to the methods described in the literature (Sugama S, et al., Brain Res, 2003, 964: 288-94). […]
compound,measurement,setting,value
"N[C@@H]1CONC1=O [DCS, D-4-amino-3-isoxazolidone]",function of episodic-like memory after MPTP lesion,[1]; DCS 10 mg/kg/day,recovered
same,"time exploring old object, same location (Os) vs different location (Od), paired t-test",[1]; MPTP+DCS 5 mg/kg/day (E1),had the trend of significance
same,"time exploring recent object, displaced (Rd) vs same place (Rs), paired t-test",[1]; MPTP+DCS 5 mg/kg/day (E1),no differences between exploring Rs and exploring Rd
same,total exploration time in the test trial,[1]; MPTP+DCS 5 mg/kg/day i.p. for 13 days (E1),54.4 ± 5.9 s
same,"time exploring recent object, displaced (Rd) vs same place (Rs), paired t-test","[1]; MPTP+DCS 10 mg/kg/day (E2), P<0.001",spent a longer time exploring the displaced object (Rd)
same,"time exploring old object, same location (Os) vs different location (Od), paired t-test","[1]; MPTP+DCS 10 mg/kg/day (E2), P<0.05",spent a longer time exploring the old object placed in the same location (Os)
same,total exploration time in the test trial,[1]; MPTP+DCS 10 mg/kg/day i.p. for 13 days (E2),25.4 ± 4.3 s
same,MPTP-induced reduction in relative optical density of TH immunoreactivity in the striatum,[2]; DCS 5 mg/kg/day,blocked
same,MPTP-induced reduction in the density of DAergic neurons in the SNc,[2]; DCS 5 mg/kg/day,blocked
same,MPTP-induced reduction in relative optical density of TH immunoreactivity in the striatum,[2]; DCS 10 mg/kg/day,blocked
same,MPTP-induced reduction in the density of DAergic neurons in the SNc,[2]; DCS 10 mg/kg/day,blocked
same,MPTP-induced microglial activation in the SNc,[3]; DCS 5 mg/kg/day,suppressed
same,MPTP-induced microglial activation in the hippocampus,[3]; DCS 5 mg/kg/day,suppressed
same,MPTP-induced microglial activation in the SNc,[3]; DCS 10 mg/kg/day,suppressed
same,MPTP-induced microglial activation in the hippocampus,[3]; DCS 10 mg/kg/day,suppressed
same,microglial activation in the striatum,[3]; DCS 5 and 10 mg/kg/day groups vs other groups,no significant difference between the groups
same,MPTP-induced decrease of neuronal density in the pyramidal cell layer of hippocampal CA1 area,[4],blocked
